Measurements from paper PMC13492380, “Dissecting Structural and Functional Determinants of Microtubules Stabilization through Guided Chemical Modulation” (Journal of Medicinal Chemistry, 2026).

Tested on: Tau-mCherry (Tau 441 isoform) on stabilized MTs from porcine brain tubulin
Assay: Tau-mCherry binding to stabilized MTs (TIRF)
Assay type: biochemical
Conditions: for Tau envelope growth velocity / initial Tau envelope coverage: 10 nM Tau-mCherry; for Tau envelope coverage of MT length / Tau-mCherry coating of stabilized MTs: 40 nM Tau-mCherry; for initial Tau envelope coverage: MTs polymerized in the presence of drug
Text: Previous studies in vitro have shown that Tau molecules strongly prefer compacted GDP lattices. Tau binds cooperatively to MT surfaces, resulting in a cohesive layer depending on tau-tau interactions, termed MT envelope, which selectively regulates access to MT lattices, and shields MTs from severing enzymes. − On expanded PTX-MTs, Tau envelope also forms and the lattice can get locally compacted. To further explore how MT lattice structure influences Tau binding, we employed an in vitro reconstitution assay. We deposited stabilized MTs in a flow chamber, and visualized them via interference reflection microscopy (Figure C). We then added 10 nM Tau-mCherry (labeled purified Tau 441 isoform at the C-terminus with mCherry) and monitored its association with MTs using time-lapse TIRF microscopy. After 4 min, we increased Tau concentration to 40 nM, and continued imaging for an additional 4 min. We measured fluorescence intensities along MTs to quantify Tau binding (Movies S16–S27). […] PTXpost-MTs also supported […] faster envelope growth (0.20 ± 0.02 μm/s versus 0.054 ± 0.006 μm/s for PTXpre-MTs, Figure H).
Total Internal Reflection Fluorescence microscopy experiments were performed on an inverted widefield microscope Nikon-Ti2 E, equipped with a motorized XY-stage, a perfect focus system, Apo TIRF 60× oil NA 1.49 objective and PRIME BSY (Teledyne Photometrics) camera. MTs were visualized using Interference Reflection microscopy (IRM) and fluorescently labeled proteins were visualized sequentially by switching between microscope filter cubes for GFP and mCherry channels. The microscopes were controlled using NIS Elements software (Nikon). All experiments were conducted at RT.
Microscopy chambers were prepared from two sandwiched silanized glass coverslips (22 × 22 mm^2 and 18 × 18 mm^2) attached through parafilm strips (heated for 15–20 s at 60 °C and gently pressed together) to form ∼2.5 mm wide parallel flow channels. Prior to the chamber assembly, the coverslips were washed in 3 M KOH, cleaned using Zepto plasma cleaner (Diener electronic) and silanized with hexamethyldisilazane. Flow channels were first incubated with 40 μgml^–1 antibiotin antibodies (Sigma, B3640) in PBS for 10 min, followed by incubation with 1% Pluronic F127 (Sigma-Aldrich, P2443) in PBS for at least 1 h. F127 was washed with BRB80 (80 mM PIPES, 1 mM EGTA, 1 mM MgCl2, pH 6.9).
Porcine brain tubulin was isolated using the high-molarity PIPES procedure then mixed with Biotin labeled tubulin (Cytoskeleton Inc., T333P) in 1:49 ratio. All MTs were polymerized using 2% biotin-labeled tubulin. […] Polymerized MTs were centrifuged for 30 min at 18,000g in a Microfuge 18 Centrifuge (Beckman Coulter’s). […] Drug stabilized preassembly MTs (polymerized in the presence of drugs and GTP, stored and imaged in presence of drug) were polymerized from 4 mg mL^–1 biotinylated tubulin for 30 min at 37 °C in BRB80 supplemented with 4 mM MgCl2, 40 μM drug of interest in 5% DMSO, and 1 mM GTP. Polymerized MTs were centrifuged for 30 min at 18,000g in a Microfuge 18 Centrifuge (Beckman Coulter’s). […] GMPCPP stabilized MTs (GMPCPP polymerized) were assembled from 4 mg mL^–1 biotinylated tubulin for 2 h at 37 °C in BRB80 supplemented with 1 mM MgCl2 and 1 mM GMPCPP (Jena Bioscience, NU-405). Polymerized MTs were centrifuged for 30 min at 18,000g in a Microfuge 18 Centrifuge (Beckman Coulter’s) and pellets were resuspended and kept in BRB80.
Stabilized MTs were flushed into the channel and incubated for 15–30 s to allow for surface attachment. Unbound MTs were removed by washing with BRB80 supplemented with 10 μM of drug. Prior the experiment, the solution was exchanged by motility buffer, MB (BRB80 containing 10 mM DTT, 20 mM D-glucose, 0.1% Tween-20, 0.5 mg/mL casein, 1 mM Mg-ATP, 0.02 mg/mL catalase, 0.22 mg/mL glucose oxidase, 10 μM drug). Subsequently, a solution containing either 1.08 nM Kif5b-EGFP or 10/40 nM mCherry-Tau in MB was introduced into the chamber. […]

[1] = MTs polymerized in the presence of drug (preassembly)
[2] = MTs stabilized with PTX after polymerization (PTXpost)

Row | Compound | Tau envelope growth velocity [1] | Tau envelope growth velocity [2] | Tau envelope coverage of MT length (MTs assembled in the presence of PTX (PTXpre)) | Tau envelope coverage of MT length [2] | initial Tau envelope coverage | Tau-mCherry coating of stabilized MTs
1 | CC(=O)O[C@H]1C(=O)[C@@]2(C)[C@H]([C@H](OC(=O)c3ccccc3)[C@]3(O)C[C@H](OC(=O)[C@H](O)[C@@H](NC(=O)c4ccccc4)c4ccccc4)C(C)=C1C3(C)C)[C@]1(OC(C)=O)CO[C@@H]1C[C@@H]2O [PTX, Paclitaxel] | 0.054 ± 0.006 μm/s | 0.20 ± 0.02 μm/s | 30% | up to 60% | – | –
2 | CC(=O)O[C@H]1C(=O)[C@]2(C)[C@@H](OC(=O)[C@H](C)NC(=O)c3ccc(-c4c5cc(F)c(=O)cc-5oc5cc(O)c(F)cc45)c(C(=O)O)c3)C[C@H]3OC[C@@]3(OC(C)=O)[C@H]2[C@H](OC(=O)c2ccccc2)[C@]2(O)C[C@H](OC(=O)[C@H](O)[C@@H](NC(=O)c3ccccc3)c3ccccc3)C(C)=C1C2(C)C [FTX2, Flutax2] | 1.37 ± 0.09 μm/s | – | – | – | 60% | fully coated
3 | COc1ccc2c(c1)CC(NC(=O)CCCCCCCC(=O)OC1CC3OCC3(OC(C)=O)C3C(OC(=O)c4ccccc4)C4(O)CC(OC(=O)C(O)C(NC(=O)c5ccccc5)c5ccccc5)C(C)=C(C(OC(C)=O)C(=O)C13C)C4(C)C)CC2 [1b, 7-O-((S)-9″-(7‴-Methoxy-1‴,2‴,3‴,4‴-tetrahydronaphthalen-2‴-yl)amino) −9″-oxononanoyl) Paclitaxel] | 0.46 ± 0.05 μm/s | – | – | – | 20% | fully coated
4 | CC(=O)OC1C(=O)C2(C)C(OC(=O)CCCCC(=O)OC3CCc4ccccc43)CC3OCC3(OC(C)=O)C2C(OC(=O)c2ccccc2)C2(O)CC(OC(=O)C(O)C(NC(=O)c3ccccc3)c3ccccc3)C(C)=C1C2(C)C (stereo not shown) [1a, 7-O-(6″-O-(2‴,3‴-Dihydroinden-1‴-yl)hexanedioyl) Paclitaxel] | 1.5 ± 0.1 μm/s | – | – | – | 40% | fully coated
